Assay results: patent US20240246960A1 (adMare Therapeutics Society, priority 2021, published 2024)
pEC50, pIC50: −log10 of the molar value. Like-named read-outs stand apart in the source and are kept apart here.

How the values were obtained:
DNA-PK = biological target: T1, DNA-PK (Homo sapiens, UniProt P78527); experiment: DNA-PK Assay for Biochemical Enzymatic Inhibition (ADP Glo Kinase assay); conditions: Table 1
T1 construct: purchased Invitrogen PR9107A
In short: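 Human DNA-PK (25 ng) preincubated 15 min with compounds (ten three-fold dilutions) in HEPES pH 7.5, MgCl2, KCl, calf thymus DNA buffer, then substrate 434.4 μM and ATP 64.4 μM (final) for 60 min at room temperature. ADP-Glo luminescence; percent inhibition fitted by four-parameter regression for IC50.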

[1] = Microsomal stability assay, mouse liver microsomes; conditions: for microsomal CLint at 0.1 uM: male, CD-1, mouse, liver microsomes, pH 7.4, Microsomal Stability Mouse Clint, 0.1 mg/mL microsomes, 0.1 uM compound
[2] = biological target: T2, DNA-PK phosphorylation at Serine 2056 (Homo sapiens, UniProt P78527); experiment: Cellular Assay for Inhibition of DNA-PK Phosphorylation at Serine 2056 (FaDu cells, neocarzinostatin, sandwich ELISA); type: cell-based; conditions: Table 1
T2 construct: host or cells: FaDu
In short: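 Readout was pSer2056 and total DNA-PK, measured by sandwich ELISA on protein-normalized lysates. Prior to lysis, compound was applied to FaDu cells for 1 h (0.3% DMSO), followed by 2 h of 1 μg/mL neocarzinostatin. IC50 values were fitted from log concentration versus % inhibition normalized to DMSO and NCS controls.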

[3] = biological target: T3, pDNA-PK ser2056 induction in HCT116 spheroids (Homo sapiens, UniProt P78527); experiment: Multicellular tumour spheroid + radiation, pDNA-PK inhibition, HCT116; type: cell-based; conditions: 20 Gy
T3 construct: endogenous in cells; host or cells: HCT116 multicellular tumour spheroids
Experimental: Multicellular tumour spheroids determination of compound inhibition of pDNA-PK induction following radiation. Tumour spheroids were grown to approximately 0.5 mm in diameter and irradiated with 20 Gy in combination with inhibitor test compounds to determine their potency. Inhibitor concentration for 50% reduction in pDNA-PK induction (IC50) was determined via immunohistochemical staining in spheroid cryosections taken 2 hours following radiation.
Spheroid, Cell Line: […], Immunohistochemical endpoint, pDNA-PK inhibition, EC50 in μm.
(§1) Spheroid+radiation pDNA-PK. Radiation: 20 Gy. Drug: serial dilution 5 or 10 μM down to 3.5 nM (11 wells). Spheroids: 3-6 spheroids per well (300-500 μm diameter). 20% O2 and 5% CO2. 96 well plate format.
Protocol: pre-incubate 1 hours with drug, irradiate with 20 Gy, post-incubate 2 hours with drug, freeze and cryosection ×3 replicates.
Endpoint: fluorescent immunostin pDNA-PK ser2056 and image on microscope.
Analysis: determine EC50 concentration that decreases pDNA-PK induction by 50% after radiation.
Multicellular tumour spheroids determination of compound inhibition of pDNA-PK induction following radiation. Tumour spheroids were grown to approximately 0.5 mm in diameter and irradiated with 20 Gy in combination with inhibitor test compounds to determine their potency. Inhibitor concentration for 50% reduction in pDNA-PK induction (IC50) was determined via immunohistochemical staining in spheroid cryosections taken 2 hours following radiation. For cell survival endpoint 8 Gy radiation was used and 3 hours following radiation spheroids were dissociated, counted and plated for colony forming endpoint.
as §1, with “format. Endpoint: fluorescent immunostain pDNA-PK ser2056 and image on microscope. Analysis: determine EC50 concentrations that decreases pDNA-PK induction […] after irradiation.” for “format.”
Multicellular tumour spheroids were used to determine potency of test compounds in a 3D tissue environment using inhibition of pDNA-PK induction following radiation or cell survival as the endpoint. For the pDNA-PK endpoint HCT116 or FaDU tumour spheroids were grown to approximately 0.5 mm in diameter and irradiated with 20 Gy in combination with inhibitor test compounds to determine their potency. Experiments were carried out in 96 well plates containing 0.7 mls of MEM media containing 10% FBS and 10 mM glucose under 20% O2 & 5% CO2 at 37° C. Following dilution of compounds 1:1000 from DMSO stocks, compounds were serially diluted from 10 μM down to 3.5 nM and 5-10 spheroids added. 96 well plates were constantly stirred to avoid spheroids settling during the course of the experiment. The inhibitor concentration for 50% reduction in pDNA-PK induction (EC50) was determined via immunohistochemical staining in spheroid cryosections taken 2 hours following radiation using anti-pDNA-PK (ser 2056) and fixed immediately in formalin following sectioning. For cell survival endpoint 8 Gy radiation was used and, 3 hours following radiation, spheroids were dissociated, counted and plated for colony forming endpoint. Data presented in the table compound potency as EC50 [μM].

[4] = Example 7, spheroid, cell line HCT115 [sic], 20% O2, read-out: EC50 (pDNA-PK inhibition, immunohistochemical endpoint)
[5] = Example 8, spheroid, read-out: Cell line: HCT116 Immunohistochemical endpoint pDNA-PK inhibition EC50
[6] = Example 9 Study 2, 20% O2, read-out: Spheroid Cell line: HCT116 Immunohistochemical endpoint pDNA-PK inhibition EC50

pIC50 (DNA-PK) | Microsomal Stability (mouse) % rem. 60 min [1] | microsomal CLint at 0.1 uM [1] [µL/min/mg] | pIC50 [2] | pEC50 [3, 4] | pEC50 [3, 5] | pEC50 [3, 6] | Structure (SMILES)
6.82 to 8.00 | E (% remaining = 0-25%) | > 116 |  |  |  |  | C[C@]1(n2ccnc2)CC[C@@H](Oc2nc(N3CCOCC3)cc3ncccc23)CC1 [Compound 11, 4-(5-(((1s,4s)-4-(1H-imidazol-1-yl)-4-methylcyclohexyl)oxy)-1,6-naphthyridin-7-yl)morpholine]
8.00 to 9.00 | G (% remaining = 50-75%) | < 116 | 6.00 to 7.00 | 5.00 to 6.00 | 5.00 to 6.00 | 5.00 to 6.00 | O=C(N[C@H]1CC[C@@H](Oc2nc(N3CCOCC3)cc3ncccc23)CC1)N1CCOCC1 [Compound 14, N-((1s,4s)-4-((7-morpholino-1,6-naphthyridin-5-yl)oxy)cyclohexyl)morpholine-4-carboxamide]
6.82 to 8.00 | E (% remaining = 0-25%) | > 116 |  |  |  |  | FC(F)(F)c1cnn([C@H]2CC[C@@H](Oc3nc(N4CCOCC4)cc4ncccc34)CC2)c1 [Compound 17b, 4-(5-(((1s,4s)-4-(4-(trifluoromethyl)-1H-pyrazol-1-yl)cyclohexyl)oxy)-1,6-naphthyridin-7-yl)morpholine]
8.00 to 9.00 | E (% remaining = 0-25%) | > 116 | 5.00 to 6.00 |  |  |  | Cc1nn([C@H]2CC[C@@H](Oc3nc(N4CCOCC4)cc4ncccc34)CC2)cc1C(F)(F)F [Compound 17g, 4-(5-(((1s,4s)-4-(3-methyl-4-(trifluoromethyl)-1H-pyrazol-1-yl)cyclohexyl)oxy)-1,6-naphthyridin-7-yl)morpholine]
 | E (% remaining = 0-25%) | > 116 |  |  |  |  | c1cnc2cc(N3CCOCC3)nc(O[C@H]3CC[C@@H](n4cnnn4)CC3)c2c1 [Compound 17l, 4-(5-(((1s,4s)-4-(1H-tetrazol-1-yl)cyclohexyl)oxy)-1,6-naphthyridin-7-yl)morpholine]
8.00 to 9.00 | E (% remaining = 0-25%) | > 116 | 6.00 to 7.00 | 5.00 to 6.00 | 5.00 to 6.00 | 5.00 to 6.00 | c1cnc2cc(N3CCOCC3)nc(O[C@H]3CC[C@@H](n4ncnn4)CC3)c2c1 [Compound 17m, 4-(5-(((1s,4s)-4-(2H-tetrazol-2-yl)cyclohexyl)oxy)-1,6-naphthyridin-7-yl)morpholine]
8.00 to 9.00 | E (% remaining = 0-25%) | > 116 | 6.00 to 7.00 | 5.00 to 6.00 | 5.00 to 6.00 | 5.00 to 6.00 | Brc1cnc2cc(N3CCOCC3)nc(O[C@H]3CC[C@@H](Nc4ncccn4)CC3)c2c1 [Compound 18a, N-((1s,4s)-4-((3-Bromo-7-morpholino-1,6-naphthyridin-5-yl)oxy)cyclohexyl)pyrimidin-2-amine]
8.00 to 9.00 | E (% remaining = 0-25%) | > 116 | > 7.00 | 6.00 to 6.30 | 6.00 to 6.30 | 6.00 to 6.30 | COc1cnc(N[C@H]2CC[C@@H](Oc3nc(N4CCOCC4)cc4ncccc34)CC2)nc1 [Compound 20c, 5-Methoxy-N-((1s,4s)-4-((7-morpholino-1,6-naphthyridin-5-yl)oxy)cyclohexyl)pyrimidin-2-amine]
6.82 to 8.00 | F (% remaining = 25-50%) | > 116 |  |  |  |  | c1cnc(N[C@H]2CC[C@H](Oc3nc(N4CCOCC4)cc4ncccc34)CC2)nc1 [Compound 24, N-((1r,4r)-4-((7-morpholino-1,6-naphthyridin-5-yl)oxy)cyclohexyl)pyrimidin-2-amine]
9.00 to 9.30 | E (% remaining = 0-25%) | > 116 | 6.00 to 7.00 | 5.00 to 6.00 | 5.00 to 6.00 | 5.00 to 6.00 | c1cncc(N[C@H]2CC[C@@H](Oc3nc(N4CCOCC4)cc4ncccc34)CC2)c1 [Compound 26, N-((1s,4s)-4-((7-morpholino-1,6-naphthyridin-5-yl)oxy)cyclohexyl)pyridin-3-amine]
> 9.30 | E (% remaining = 0-25%) | > 116 | > 7.00 | 6.00 to 6.30 |  | 6.00 to 6.30 | c1cnnc(N[C@H]2CC[C@@H](Oc3nc(N4CCOCC4)cc4ncccc34)CC2)c1 [Compound 29, N-((1s,4s)-4-((7-morpholino-1,6-naphthyridin-5-yl)oxy)cyclohexyl)pyridazin-3-amine]
8.00 to 9.00 | E (% remaining = 0-25%) | > 116 | 6.00 to 7.00 | 5.00 to 6.00 | 5.00 to 6.00 | 5.00 to 6.00 | O=C(N[C@H]1CC[C@@H](Oc2nc(N3CCOCC3)cc3ncccc23)CC1)C1CC1 [Compound 108, N-((1s,4s)-4-((7-Morpholino-1,6-naphthyridin-5-yl)oxy)cyclohexyl)cyclopropanecarboxamide]
8.00 to 9.00 | E (% remaining = 0-25%) | > 116 | 6.00 to 7.00 | 4.00 to 5.00 | 4.00 to 5.00 | 4.00 to 5.00 | O=C(N[C@H]1CC[C@@H](Oc2nc(N3CCOCC3)cc3ncccc23)CC1)C1(O)CC1 [Compound 109, 1-Hydroxy-N-((1s,4s)-4-((7-morpholino-1,6-naphthyridin-5-yl)oxy)cyclohexyl)cyclopropane-1-carboxamide]
9.00 to 9.30 | E (% remaining = 0-25%) | > 116 | 6.00 to 7.00 | 5.00 to 6.00 |  | 5.00 to 6.00 | O=C(N[C@H]1CC[C@@H](Oc2nc(N3CCOCC3)cc3ncccc23)CC1)c1ccccn1 [Compound 114, N-((1s,4s)-4-((7-morpholino-1,6-naphthyridin-5-yl)oxy)cyclohexyl)picolinamide]
9.00 to 9.30 |  |  | 6.00 to 7.00 | 5.00 to 6.00 |  | 5.00 to 6.00 | N#Cc1cnc2cc(N3CCOCC3)nc(O[C@H]3CC[C@@H](Nc4ncccn4)CC3)c2c1 [Compound 200a, 7-morpholino-5-(((1s,4s)-4-(pyrimidin-2-ylamino)cyclohexyl)oxy)-1,6-naphthyridine-3-carbonitrile]
8.00 to 9.00 |  |  | 4.52 to 5.00 | 4.00 to 5.00 |  | 4.00 to 5.00 | COc1cnc(N[C@H]2CC[C@@H](Oc3nc(N4CCOCC4)cc4ncc(I)cc34)CC2)nc1 [Compound 201, N-((1s,4s)-4-((3-iodo-7-morpholino-1,6-naphthyridin-5-yl)oxy)cyclohexyl)-5-methoxypyrimidin-2-amine]
